PubChem BioAssay (NCI)
Several values for one entry are separate records, joined by “and”; a condition that tells them apart may be missing. Equal values may be shown once.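 Cells were grown in 96-well plates and exposed to each compound for 48 hours at five concentrations; endpoints were interpolated linearly between bracketing concentrations, or set to the highest concentration if not reached. Here, GI50 denotes the concentration required for 50% inhibition of growth. At the TGI there is no net growth.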

Experiments:
Experiment in all cases: DTP human tumour cell line panel, 48 h
SK-MEL-2 melanoma = tested on: SK-MEL-2 melanoma
SK-MEL-28 melanoma = tested on: SK-MEL-28 melanoma
LOX IMVI melanoma = tested on: LOX IMVI melanoma
OVCAR-8 ovarian = tested on: OVCAR-8 ovarian
786-0 renal = tested on: 786-0 renal
CCRF-CEM leukemia = tested on: CCRF-CEM leukemia
NCI-H23 lung = tested on: NCI-H23 lung
OVCAR-3 ovarian = tested on: OVCAR-3 ovarian
HOP-92 NSCLC = tested on: HOP-92 NSCLC
M14 melanoma = tested on: M14 melanoma
OVCAR-4 ovarian = tested on: OVCAR-4 ovarian
RXF 393 renal = tested on: RXF 393 renal
NCI-H226 lung = tested on: NCI-H226 lung
EKVX NSCLC = tested on: EKVX NSCLC
IGROV1 ovarian = tested on: IGROV1 ovarian
SW-620 colon = tested on: SW-620 colon
T-47D breast = tested on: T-47D breast
SNB-75 CNS = tested on: SNB-75 CNS
HCT-15 colon = tested on: HCT-15 colon
CAKI-1 renal = tested on: CAKI-1 renal
U251 CNS = tested on: U251 CNS
UACC-62 melanoma = tested on: UACC-62 melanoma
SN12C renal = tested on: SN12C renal
NCI-H522 lung = tested on: NCI-H522 lung
A549 NSCLC = tested on: A549 NSCLC
RPMI-8226 leukemia = tested on: RPMI-8226 leukemia
MDA-MB-231 breast = tested on: MDA-MB-231 breast
K-562 leukemia = tested on: K-562 leukemia
SNB-19 CNS = tested on: SNB-19 CNS
KM12 colon = tested on: KM12 colon
NCI/ADR-RES ovarian = tested on: NCI/ADR-RES ovarian
HL-60(TB) leukemia = tested on: HL-60(TB) leukemia
SK-OV-3 ovarian = tested on: SK-OV-3 ovarian
BT-549 breast = tested on: BT-549 breast
HS 578T breast = tested on: HS 578T breast
MDA-MB-435 = tested on: MDA-MB-435
MCF7 breast = tested on: MCF7 breast
DU-145 prostate = tested on: DU-145 prostate
HT29 colon = tested on: HT29 colon
SK-MEL-5 melanoma = tested on: SK-MEL-5 melanoma
HCC-2998 colon = tested on: HCC-2998 colon
ACHN renal = tested on: ACHN renal
SF-295 CNS = tested on: SF-295 CNS
SF-539 CNS = tested on: SF-539 CNS
HOP-62 NSCLC = tested on: HOP-62 NSCLC
NCI-H460 lung = tested on: NCI-H460 lung
COLO 205 colon = tested on: COLO 205 colon
MOLT-4 leukemia = tested on: MOLT-4 leukemia
OVCAR-5 ovarian = tested on: OVCAR-5 ovarian
PC-3 prostate = tested on: PC-3 prostate
A498 renal = tested on: A498 renal
UO-31 renal = tested on: UO-31 renal
UACC-257 melanoma = tested on: UACC-257 melanoma
TK-10 renal = tested on: TK-10 renal
MDA-N = tested on: MDA-N
HCT-116 colon = tested on: HCT-116 colon
SF-268 CNS = tested on: SF-268 CNS

SMILES: COC(=O)[C@H](Cc1ccccc1)NC(=O)[C@H](Cc1ccccc1)NC(=O)CN1C(=O)[C@@H]2C3C=CC(C3)[C@@H]2C1=O
- TGI (SK-MEL-2 melanoma): 33 µM and 34.5 µM
- TGI (SK-MEL-28 melanoma): 35 µM and 35.7 µM
- TGI (LOX IMVI melanoma): 33.3 µM and 32.2 µM
- TGI (OVCAR-8 ovarian): 27.9 µM and 33.8 µM
- TGI (786-0 renal): 27.2 µM and 28.8 µM
- GI50 (CCRF-CEM leukemia): 7.9 µM and 19.9 µM
- TGI (CCRF-CEM leukemia): 39.1 µM and 57.3 µM
- TGI (NCI-H23 lung): 32.1 µM and 33 µM
- TGI (OVCAR-3 ovarian): 33.1 µM and 37 µM
- TGI (HOP-92 NSCLC): 33.3 µM and 36.1 µM
- TGI (M14 melanoma): 41.4 µM and 40.4 µM
- TGI (OVCAR-4 ovarian): 31.2 µM and 37.5 µM
- TGI (RXF 393 renal): 36.2 µM and 35 µM
- TGI (NCI-H226 lung): 38.5 µM and 39.1 µM
- TGI (EKVX NSCLC): 35.1 µM and 37.3 µM
- TGI (IGROV1 ovarian): 25.5 µM and 30.4 µM
- TGI (SW-620 colon): 40.8 µM and 48.5 µM
- TGI (T-47D breast): 47.2 µM and 49 µM
- TGI (SNB-75 CNS): 34 µM and 33.7 µM
- TGI (HCT-15 colon): 31.2 µM and 33.1 µM
- TGI (CAKI-1 renal): 30.6 µM and 35.1 µM
- TGI (U251 CNS): 30 µM and 33.2 µM
- TGI (UACC-62 melanoma): 30 µM and 30.2 µM
- TGI (SN12C renal): 32.9 µM and 30.6 µM
- TGI (NCI-H522 lung): 27.8 µM and 31.8 µM
- TGI (A549 NSCLC): 45.9 µM and 44.1 µM
- TGI (RPMI-8226 leukemia): 38.3 µM and 52 µM
- TGI (MDA-MB-231 breast): 31.5 µM and 32.4 µM
- GI50 (K-562 leukemia): 7.26 µM and 17.5 µM
- TGI (K-562 leukemia): 36.2 µM and 42.2 µM
- TGI (SNB-19 CNS): 36.6 µM and 39.9 µM
- TGI (KM12 colon): 33.9 µM and 41.7 µM
- TGI (NCI/ADR-RES ovarian): 53.9 µM and > 100 µM
- TGI (HL-60(TB) leukemia): 40.8 µM and 33.5 µM
- TGI (SK-OV-3 ovarian): 31.7 µM
- TGI (BT-549 breast): 32.1 µM and 30.2 µM
- TGI (HS 578T breast): 38.2 µM and 38 µM
- TGI (MDA-MB-435): 28.7 µM and 32 µM
- TGI (MCF7 breast): 34.1 µM and 31.7 µM
- TGI (DU-145 prostate): 39.1 µM and 34.2 µM
- TGI (HT29 colon): 38.4 µM and 42.1 µM
- TGI (SK-MEL-5 melanoma): 28.3 µM and 32.1 µM
- TGI (HCC-2998 colon): 30.8 µM and 31 µM
- TGI (ACHN renal): 29.7 µM and 30.4 µM
- TGI (SF-295 CNS): 35.5 µM and 36.6 µM
- TGI (SF-539 CNS): 32 µM and 33.3 µM
- TGI (HOP-62 NSCLC): 38.5 µM and 39.8 µM
- TGI (NCI-H460 lung): 42.6 µM and 46.3 µM
- TGI (COLO 205 colon): 29.7 µM and 30.9 µM
- TGI (MOLT-4 leukemia): 5.2 µM and 8.67 µM
- TGI (OVCAR-5 ovarian): 43.1 µM and 41.7 µM
- TGI (PC-3 prostate): 29 µM and 30 µM
- TGI (A498 renal): 31.3 µM and 53 µM
- TGI (UO-31 renal): 42.3 µM and 32.1 µM
- TGI (UACC-257 melanoma): 30.9 µM and 33.6 µM
- TGI (TK-10 renal): 31.2 µM and 38.6 µM
- TGI (MDA-N): 30.2 µM and 30.9 µM
- TGI (HCT-116 colon): 27.3 µM and 30.2 µM
- TGI (SF-268 CNS): 26.3 µM and 31.5 µM
